Results on 3 compounds are retold here after US4268503A, “Antibacterial composition” (Fujisawa Pharmaceutical Co., Ltd., priority 1979, dated 1981).

Common to all, as to assay type: cell-based
One test concerns Klebsiella pneumoniae 8. Briefly: Test 8: synergistic activity in various combination ratios (isobologram, growth). Also noted: key: the symbol "+" means that the test microorganism grew; the symbol "-" means that the test microorganism did not grow. Here is the method:
Into a Nutrient broth (Difco) containing prescribed amounts of monosodium salt of 3-(N-formyl-N-hydroxyamino)-propylphosphonic acid and gentamicin sulfate, was inoculated 0.5% of 10-fold dilution of cultured broth of pathogen which was cultured overnight in Nutrient broth (Eiken). After the incubation was carried out at 37° C. for 18 hours, the growth of the test organism was observed.

For test [1], the system named is Staphylococcus epidermidis 1601-1. Description: Tests 2 and 3: MIC and synergism (FIC) in vitro. The settings on record: 16011, S. epidermidis 1601-1, Nutrient agar, 10^5 cells/ml, 37° C., 20 hours. How it is done:
(§1) On a Nutrient agar (Difco) containing prescribed amount of each of monosodium salt of 3-(N-formyl-N-hydroxyamino)propylphosphonic acid, monosodium salt of ampicillin and a mixture of 3-(N-formyl-N-hydroxyamino)propylphosphonic acid and monosodium salt of ampicillin (1:1 by weight), there was streaked a loopful of cultured broth of each pathogen, which was cultured overnight in Nutrient broth (Difco), in a concentration of 10^5 cells/ml. After the incubation was carried out at 37° C. for 20 hours, MIC values were determined.
(§2) FIC values and FIC Index were calculated in substantially the same manner as described in Test 1.
(§3) Synergistic activity of 3-(N-formyl-N-hydroxyamino)propylphosphonic acid and cefazolin; that of 3-(N-formyl-N-hydroxyamino)propylphosphonic acid and ticarcillin; and that of 3-(N-formyl-N-hydroxyamino)propylphosphonic acid and nocardicin A were tested in vitro in substantially the same manner as described in the above Test 2.

In test [2] the test system is Enterobacter cloacae 1401-4. Description: Tests 2 and 3: MIC and synergism (FIC) in vitro. The settings on record: 14014, E. cloacae 1401-4, Nutrient agar, 10^5 cells/ml, 37° C., 20 hours. How it is done:
as §1, §2, §3

Test [3] concerns Salmonella typhimurium 1406. Briefly: Tests 2 and 3: MIC and synergism (FIC) in vitro. The conditions noted are these: Salmonella enterica, 20 h. Here is the method:
as §1, §2, §3

Test [4] has as its system Serratia marcescens 1421-4. Briefly: Tests 2 and 3: MIC and synergism (FIC) in vitro. The conditions noted are these: 14214, S. marcescens 1421-4, Nutrient agar, 10^5 cells/ml, 37° C., 20 hours. How it is done:
as §1, §2, §3

The subject of test [5] is Proteus mirabilis 1432-75. Briefly: Tests 2 and 3: MIC and synergism (FIC) in vitro. The settings on record: Proteus mirabilis, 143275, 20 h. How it is done:
as §1, §2, §3

Test [6] relates to Klebsiella pneumoniae NCTC 418. Description: Tests 2 and 3: MIC and synergism (FIC) in vitro. The conditions noted are these: NCTC418, 20 h. How it is done:
as §1, §2, §3

For `O=CN(O)CCCP(=O)(O)O` [3-(N-formyl-N-hydroxyamino)propylphosphonic acid], the “growth of test microorganism” value in the test on Klebsiella pneumoniae 8 (gentamicin sulfate 0, phosphonic acid 0.78 mcg/ml, 37° C., 18 hours) is “+”; in the test with Klebsiella pneumoniae 8 (gentamicin sulfate 0, phosphonic acid 1.56 mcg/ml), “+”; with Klebsiella pneumoniae 8 (gentamicin sulfate 0, phosphonic acid 3.13 mcg/ml), “+”; in the test on Klebsiella pneumoniae 8 (gentamicin sulfate 0, phosphonic acid 6.25 mcg/ml), “+”; with Klebsiella pneumoniae 8 (gentamicin sulfate 0, phosphonic acid 12.5 mcg/ml) it was “+”; with Klebsiella pneumoniae 8 (gentamicin sulfate 0, phosphonic acid 25 mcg/ml), “-”.
With `CC1(C)S[C@@H]2[C@H](NC(=O)[C@H](C(=O)O)c3ccsc3)C(=O)N2[C@H]1C(=O)O` [ticarcillin], the MIC in test [1] was found to be 3.13 µg/mL; in test [2], 50 µg/mL; in test [3] it was 1.56 µg/mL; in test [4], 25 µg/mL; in test [5], 0.78 µg/mL; in test [6] it was 100 µg/mL.
As for gentamicin, the “growth of test microorganism” value in the test on Klebsiella pneumoniae 8 (gentamicin sulfate 0.001, phosphonic acid 0 mcg/ml) is given as “+”; in the test with Klebsiella pneumoniae 8 (gentamicin sulfate 0.003, phosphonic acid 0 mcg/ml), “+”; in the test with Klebsiella pneumoniae 8 (gentamicin sulfate 0.006, phosphonic acid 0 mcg/ml) it was “+”; with Klebsiella pneumoniae 8 (gentamicin sulfate 0.01, phosphonic acid 0 mcg/ml), “+”; in the test with Klebsiella pneumoniae 8 (gentamicin sulfate 0.025, phosphonic acid 0 mcg/ml) it was “+”; with Klebsiella pneumoniae 8 (gentamicin sulfate 0.05, phosphonic acid 0 mcg/ml), “-”.

The MIC is the smallest concentration in the dilution series that meets the test's criterion for growth inhibition.
